This note sets out measurements from ChEMBL document CHEMBL1201862, “PubChem BioAssay data set” (2004).

Test systems include RXF 631; KM-20L2; XF498; DMS-114; SNB-78; LXFL 529; DMS-273; HOP-18; DLD-1.
Common to all, as to experiment: NCI anticancer screen, dose series, 48 h

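Following 48 hours of exposure in 96-well plates, responses at five concentrations were used to interpolate endpoints linearly. GI50: concentration for 50% inhibition of growth.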 Calls of active or inactive are those of the source. Cut-off read from the data, not from the text of the source: active = GI50 up to about 1.1 µM and inactive = higher.

On to `CCC1CN2CCc3cc(OC)c(OC)cc3C2CC1CC1c2cc(OC)c(OC)cc2CCN1C(=O)C1CCCN1C(=O)OCc1ccccc1` (stereo unspecified), for which the GI50 in the assay with RXF 631 was 18.5 µM (inactive); with KM-20L2, 16.7 µM (inactive); in the assay with XF498, 16.6 µM (inactive); in the assay on DMS-114, 13.9 µM (inactive); in the assay with SNB-78, 16 µM (inactive); in the assay on LXFL 529, 16.3 µM (inactive). In addition, the GI50 in the assay with DMS-273 was 16.3 µM (inactive); with HOP-18, 23.1 µM (inactive); in the assay on DLD-1 it was 15.6 µM (inactive).
Regarding `CCOC(=O)CN1C(=O)c2cc([N+](=O)[O-])cc3cc([N+](=O)[O-])cc(c23)C1=O`, the GI50 in the assay with RXF 631 was 50.7 µM (inactive); in the assay on KM-20L2 it was 50.8 µM (inactive); in the assay with XF498 it was > 100 µM (inactive); in the assay with DMS-114, 57.7 µM (inactive); in the assay on SNB-78, 4.2 µM (inactive); in the assay on LXFL 529 it was 12.3 µM (inactive). For the same compound, the results for the GI50 with DMS-273, with HOP-18 and with DLD-1 were > 100 µM (inactive), > 100 µM (inactive) and 5.86 µM (inactive), respectively.
As for `CC(O)c1ccc(C(O)/C(=N\NC(=O)c2ccncc2)c2nc3ccc([N+](=O)[O-])cc3nc2O)cc1` (stereo unspecified), the GI50 was > 100 µM (inactive) in the assay with RXF 631; 33.3 µM (inactive) in the assay on KM-20L2; > 100 µM (inactive) in the assay on XF498; 16.7 µM (inactive) with DMS-114; > 100 µM (inactive) in the assay with SNB-78; 54.6 µM (inactive) with LXFL 529. For the same compound, the GI50 in the assay on DMS-273 was 83.8 µM (inactive); in the assay on DLD-1, > 100 µM (inactive).
With `CC(C)C1CC2C(=O)N(c3ccccc3)C(=O)C2c2[nH]c3ccccc3c21` (stereo unspecified), the GI50 in the assay with KM-20L2 is 73.6 µM (inactive); in the assay with XF498 it was 23.3 µM (inactive); in the assay with DMS-114, 20.4 µM (inactive); with SNB-78, 22.4 µM (inactive); in the assay on DMS-273, 9.84 µM (inactive); in the assay with DLD-1, 42.5 µM (inactive).
`CCOc1ccccc1NC(=O)C(=O)CC(=O)c1sc(Nc2nnc(-c3ccc(Cl)c(Cl)c3)o2)nc1C`: the GI50 with KM-20L2 was > 100 µM (inactive); in the assay on DMS-114, > 100 µM (inactive); in the assay on SNB-78, > 100 µM (inactive); with LXFL 529, > 100 µM (inactive); in the assay with DMS-273, 59 µM (inactive); in the assay with HOP-18, > 100 µM (inactive). For the same compound, the GI50 in the assay on DLD-1 is 88.7 µM (inactive).
Regarding `COc1ccc(C(=O)C(c2ccc(OC)cc2)C2(O)C(=O)Nc3c2ccc(Cl)c3C)cc1` (stereo unspecified), the GI50 in the assay with RXF 631 was 34.9 µM (inactive); in the assay with KM-20L2, > 100 µM (inactive); in the assay on DMS-114, > 100 µM (inactive); with SNB-78, > 100 µM (inactive); in the assay with LXFL 529, > 100 µM (inactive); in the assay with HOP-18 it was 58.9 µM (inactive).
With `O=C1c2ccccc2C2(O)c3cc4ccccc4cc3OC12O` (stereo unspecified), the GI50 in the assay on KM-20L2 is > 100 µM (inactive); in the assay with DMS-114 it was 25.1 µM (inactive); with SNB-78 it was 46.7 µM (inactive); in the assay with LXFL 529 it was 55.5 µM (inactive); with DMS-273, 46.8 µM (inactive); in the assay with HOP-18 it was 69.7 µM (inactive). The GI50 in the assay on DLD-1 is > 100 µM (inactive).
Regarding `O=C(NCc1ccncc1)C1COc2cc(-c3cc(=O)c4ccccc4o3)ccc2O1` (stereo unspecified), the GI50 in the assay on KM-20L2, in the assay with XF498, in the assay on SNB-78, in the assay with LXFL 529 and in the assay with DLD-1 was > 100 µM (inactive) each time.
For the compound `CC(=O)NN1C(=O)C(Cc2ccccc2)c2ccccc21` (stereo unspecified), the GI50 in the assay with RXF 631, with KM-20L2, in the assay with XF498, in the assay with DMS-114, in the assay with SNB-78 and in the assay with DMS-273 was > 100 µM (inactive) throughout. Moreover, the GI50 in the assay with HOP-18 and with DLD-1 was > 100 µM (inactive) each time.
For `COc1ccc(OC)c(NC(=O)C(=O)CC(=O)c2sc(-n3nc(-c4ccccc4)cc3-c3ccccc3)nc2C)c1`, the GI50 in the assay with RXF 631, in the assay with KM-20L2, with DMS-114, in the assay with SNB-78, in the assay with LXFL 529 and in the assay with DMS-273 was > 100 µM (inactive) throughout. Further, in the assay on DLD-1, the GI50 is > 100 µM (inactive).
With `N/C(=N\O)N/N=C\c1c2ccccc2c(Cl)c2ccccc12`, the GI50 with KM-20L2 was 2.02 µM (inactive); with XF498 it was 16.8 µM (inactive); in the assay on DMS-114, 3.19 µM (inactive); in the assay with SNB-78 it was 12 µM (inactive); in the assay on DMS-273 it was 1.98 µM (inactive); with HOP-18, 2.45 µM (inactive). Besides, in the assay with DLD-1, the GI50 is 5.79 µM (inactive).
In the case of `N#CC(/C(=N\NC(=O)c1ccncc1)C(=O)Nc1ccc([N+](=O)[O-])cc1[N+](=O)[O-])c1nc(-c2ccc(Br)cc2)cs1` (stereo unspecified), the GI50 with RXF 631, in the assay on KM-20L2, in the assay on DMS-114, with SNB-78, with LXFL 529 and in the assay with DLD-1 was > 100 µM (inactive) in each case.
Turning to `COC1(OC)CC2C(=O)N(Cc3ccccc3)C1C=C2S(=O)(=O)c1ccccc1` (stereo unspecified), the GI50 was 18.8 µM (inactive) with KM-20L2; 17.8 µM (inactive) with XF498; 17.2 µM (inactive) with DMS-114; 21.8 µM (inactive) with SNB-78; 15.6 µM (inactive) in the assay on LXFL 529; 17.1 µM (inactive) in the assay with HOP-18. The GI50 with DLD-1 was 12.7 µM (inactive).
For the compound `CC1(C2COC(=O)C2)SCCCS1` (stereo unspecified), the GI50 in the assay on KM-20L2, in the assay with XF498, in the assay on DMS-114, in the assay on LXFL 529, with DMS-273 and in the assay with HOP-18 was > 100 µM (inactive) in each case. The GI50 in the assay on DLD-1 is > 100 µM (inactive).
Take `CC(=O)Nc1ccc(-c2nnc(SCC(=O)Nc3ccc([N+](=O)[O-])cc3)o2)cc1`: the GI50 was 14.4 µM (inactive) with KM-20L2; 3.3 µM (inactive) in the assay with DMS-114; 16.1 µM (inactive) in the assay on SNB-78; 7.93 µM (inactive) in the assay with LXFL 529; 10.6 µM (inactive) in the assay on DMS-273; 16.4 µM (inactive) with HOP-18. In the assay with DLD-1, the GI50 is 11.9 µM (inactive).
As to `COS(=O)c1cc(Cl)cc(Cl)c1OC(=O)CSSCC(=O)Oc1c(Cl)cc(Cl)cc1S(=O)OC` (stereo unspecified), the GI50 with RXF 631 was 20.3 µM (inactive); with KM-20L2, 27.3 µM (inactive); with DMS-114, 15.8 µM (inactive); with SNB-78, 22.9 µM (inactive); in the assay on LXFL 529, 21 µM (inactive); in the assay with DMS-273, 12.4 µM (inactive). The GI50 in the assay with HOP-18 is 21.6 µM (inactive); in the assay on DLD-1 it was 15.3 µM (inactive).
Consider `CC(=O)Nc1ccccc1-c1nc2ccccc2nc1-c1ccccc1`, for which the GI50 with KM-20L2, in the assay with XF498, with DMS-114, in the assay on SNB-78, with LXFL 529 and in the assay with DMS-273 was > 100 µM (inactive) each time. Moreover, the GI50 in the assay with HOP-18 was 0.521 µM (active); in the assay with DLD-1, > 100 µM (inactive).
`N#C/C(=C\c1ccc2[nH]ccc2c1)C(=O)NCCCCNC(=O)/C(C#N)=C/c1ccc2[nH]ccc2c1`: the GI50 in the assay with KM-20L2, in the assay on XF498, with DMS-114, with SNB-78, in the assay with LXFL 529 and in the assay on DMS-273 was > 100 µM (inactive) each time. Moreover, in the assay on DLD-1, the GI50 is > 100 µM (inactive).
As to `N#C/C(=C\c1ccccc1F)C(=O)c1ccccc1`, the GI50 in the assay on KM-20L2, with XF498, in the assay on DMS-114, in the assay on SNB-78, in the assay on LXFL 529 and in the assay on DMS-273 was > 100 µM (inactive) in each case.
In the case of `CC(C)(C)c1ccc2c(c1)S(=O)(=O)Nc1ccccc1NS(=O)(=O)c1cc(C(C)(C)C)ccc1OCCOCCOCCO2`, the GI50 in the assay with RXF 631 is 97.3 µM (inactive); in the assay on DMS-114, > 100 µM (inactive); in the assay on SNB-78 it was 59.8 µM (inactive); in the assay with DMS-273, > 100 µM (inactive); with HOP-18, > 100 µM (inactive); with DLD-1, > 100 µM (inactive).
Turning to `CC(C)(C)C(=O)OCC(COC(=O)C(C)(C)C)[N+](=O)[O-]`, the GI50 in the assay with XF498, with DMS-114, in the assay on LXFL 529, in the assay with DMS-273 and in the assay with DLD-1 was > 100 µM (inactive) throughout.
Consider `CCSC(SCC)c1cc2c(cc1Br)OCO2`, for which the GI50 was 13.1 µM (inactive) with RXF 631; 11.5 µM (inactive) in the assay with KM-20L2; 20.4 µM (inactive) in the assay on XF498; 15.5 µM (inactive) with DMS-114; 26.5 µM (inactive) with SNB-78; 3.7 µM (inactive) in the assay on DMS-273. Moreover, the GI50 with DLD-1 is 41 µM (inactive).
`CC(=O)OCC1OC(n2c(-c3ccc(N)cc3)cc(-c3ccco3)c(C#N)c2=O)C(OC(C)=O)C(OC(C)=O)C1OC(C)=O` (stereo unspecified): the GI50 in the assay on RXF 631 is 44.3 µM (inactive); in the assay with KM-20L2, > 50 µM (inactive); in the assay with DMS-114 it was 2.64 µM (inactive); with SNB-78 it was > 50 µM (inactive); in the assay on LXFL 529, 11.1 µM (inactive); in the assay on DMS-273, 5.26 µM (inactive). The GI50 in the assay with HOP-18 and with DLD-1 was > 50 µM (inactive) in each case.
For `ClC1=C(Cl)C(Cl)(Cl)c2c3c(c4c(c21)C(Cl)(Cl)C(Cl)=C4Cl)C(Cl)(Cl)C(Cl)=C3Cl`, the GI50 in the assay on KM-20L2, in the assay with XF498, in the assay with DMS-114, with LXFL 529 and in the assay with DMS-273 was > 100 µM (inactive) in each case.
